These results are taken from patent US20190218226A1, “PRODRUGS OF ANTICANCER AGENTS INDOTECAN AND INDIMITECAN” (Purdue Research Foundation, priority 2016, published 2019).

Data set [1] concerns HOP-62. Put plainly: NCI60 antiproliferative screen, lung HOP-62. In kind it is cell-based, human. As to conditions: HOP-62, 48 h, sulforhodamine B; read-out: Cytotoxicity (GI50) lung HOP-62. The essentials:
(§1)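 Cells were exposed to compound at 100, 10, 1, 0.1 and 0.01 μM for 48 h, then stained with sulforhodamine B and read by optical density. Percent growth versus control was plotted against log concentration, and GI50 was interpolated at 50% growth. Values outside 0.01–100 μM were set to those limits for the mean-graph midpoint.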

The subject of data set [2] is HCT-116. Put plainly: NCI60 antiproliferative screen, colon HCT-116. In kind it is cell-based, human. As to conditions: HCT-116, 48 h, sulforhodamine B; read-out: Cytotoxicity (GI50) Colon HCT-116. In short, it runs like this: as §1
The subject of data set [3] is SF-539. Put plainly: NCI60 antiproliferative screen, CNS SF-539. As to conditions: SF-539, 48 h, sulforhodamine B; read-out: Cytotoxicity (GI50) CNS SF-539. In kind it is cell-based, human. In short, it runs like this:
as §1

Data set [4] concerns UACC-62. The data set can be described thus: NCI60 antiproliferative screen, melanoma UACC-62. In kind it is cell-based, human. The settings on record: UACC-62, 48 h, sulforhodamine B; read-out: Cytotoxicity (GI50) melanoma UACC-62. The essentials:
as §1

Data set [5] concerns OVCAR-3. Put plainly: NCI60 antiproliferative screen, ovarian OVCAR-3. In kind it is cell-based, human. As to conditions: OVCAR-3, 48 h, sulforhodamine B; read-out: Cytotoxicity (GI50) Ovarian OVCAR-3. In short, it runs like this:
as §1

Data set [6] has as its system SN12C. The data set can be described thus: NCI60 antiproliferative screen, renal SN12C. The format is cell-based, human. As to conditions: 48 h, sulforhodamine B, read-out: Cytotoxicity (GI50) renal SN12C. The essentials:
as §1

Data set [7] relates to DU-145. The data set can be described thus: NCI60 antiproliferative screen, prostate DU-145. In kind it is cell-based, human. As to conditions: DU-145, 48 h, sulforhodamine B; read-out: Cytotoxicity (GI50) prostate DU-145. The essentials: as §1
The test system of data set [8] is MCF-7. Put plainly: NCI60 antiproliferative screen, breast MCF-7. As to conditions: MCF-7, 48 h, sulforhodamine B; read-out: Cytotoxicity (GI50) breast MCF-7. In kind it is cell-based, human. The essentials: as §1
For data set [9], the system named is all human cancer cell lines successfully tested (NCI60). Put plainly: NCI60 mean graph midpoint for growth inhibition. In kind it is cell-based. The settings on record: all human cancer cell lines successfully tested; ± standard error; read-out: MGM (mean graph midpoint for growth inhibition). In short, it runs like this:
as §1

Data set [10] can be described thus: Stability of compound 17 in cell culture medium. In kind it is physicochemical. The settings on record: 10 μM, cell-free RPMI 1640 medium, 37° C., after 99 hours. On the procedure: In order to investigate the possibility that hydrolysis of the prodrugs takes place extracellularly rather than intracellularly, compound 17 was added to cell-free cell culture medium and the mixture was incubated at 37° C. Relatively slow conversion to the parent phenol 9 was observed, with 22% conversion after 99 hours.
Stability of Compound 17 in Cell Culture Medium.
RPMI 1640 medium was purchased from Sigma-Aldrich (St. Louis, Mo.). Compound 17 (10 μM) was incubated at 37° C. with RPMI 1640 medium. After 99 h, an aliquot was taken from the incubation mixture and filtered prior to analysis using LC-MS (Waters, Germany). The flow rate was 0.75 mL/min and the eluent was recorded with a DAD at 280 nm.

What is called GI50 is the concentration that inhibits growth by half. Take `COC(=O)CCC(=O)Oc1cc2c(=O)n(CCCN3CCOCC3)c3c(c2cc1OC)C(=O)c1cc2c(cc1-3)OCO2` [Compound 17, 2-Methoxy-6-(3-morpholinopropyl)-5,12-dioxo-6,12-dihydro-5H-[1,3]dioxolo[4′,5′:5,6]indeno[1,2-c]isoquinolin-3-yl Methyl Succinate]: the GI50 is 16 nM in [1]; 20 nM in data set [2]; less than 10 nM in data set [3]; 18 nM in data set [4]; 37 nM in data set [5]; less than 10 nM in data set [6]. For the same compound, the GI50 in data set [7] is 14 nM; in data set [8], less than 10 nM. The mean GI50 across NCI60 cell lines (MGM) in data set [9] was 36 ± 18 nM. Besides, the “conversion to the parent phenol 9” value in data set [10] was 22%.
